According to PubChem BioAssay (NCI):
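Test compounds were applied to cells in 96-well plates for 48 hours at 5 doses. TGI marks complete inhibition of growth.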

Experiments:
Experiment in all cases: NCI anticancer screen, dose series, 48 h
[1] = system: HCC-2998 colon
[2] = system: SK-OV-3 ovarian
[3] = system: CCRF-CEM leukemia
[4] = system: CAKI-1 renal
[5] = system: MDA-MB-231 breast
[6] = system: SN12C renal
[7] = system: BT-549 breast
[8] = system: UACC-62 melanoma
[9] = system: NCI-H522 lung
[10] = system: NCI/ADR-RES ovarian
[11] = system: UACC-257 melanoma
[12] = system: RXF 393 renal
[13] = system: NCI-H23 lung
[14] = system: UO-31 renal
[15] = system: SR leukemia
[16] = system: HS 578T breast
[17] = system: NCI-H226 lung
[18] = system: TK-10 renal
[19] = system: T-47D breast
[20] = system: ACHN renal
[21] = system: KM12 colon
[22] = system: K-562 leukemia
[23] = system: SK-MEL-28 melanoma
[24] = system: MCF7 breast
[25] = system: OVCAR-3 ovarian
[26] = system: LOX IMVI melanoma
[27] = system: 786-0 renal
[28] = system: HT29 colon
[29] = system: RPMI-8226 leukemia
[30] = system: HCT-116 colon
[31] = system: NCI-H460 lung
[32] = system: SK-MEL-2 melanoma
[33] = system: SF-295 CNS
[34] = system: M14 melanoma
[35] = system: SF-268 CNS
[36] = system: OVCAR-5 ovarian
[37] = system: HCT-15 colon
[38] = system: SNB-75 CNS
[39] = system: PC-3 prostate
[40] = system: SNB-19 CNS
[41] = system: COLO 205 colon
[42] = system: U251 CNS
[43] = system: MALME-3M melanoma
[44] = system: MDA-MB-435
[45] = system: A549 NSCLC
[46] = system: SW-620 colon
[47] = system: IGROV1 ovarian
[48] = system: HOP-92 NSCLC
[49] = system: HOP-62 NSCLC
[50] = system: OVCAR-4 ovarian
[51] = system: SK-MEL-5 melanoma
[52] = system: SF-539 CNS
[53] = system: DU-145 prostate
[54] = system: HL-60(TB) leukemia
[55] = system: MDA-N
[56] = system: MOLT-4 leukemia
[57] = system: A498 renal
[58] = system: EKVX NSCLC
[59] = system: OVCAR-8 ovarian
[60] = system: DMS 273 small cell lung
[61] = system: XF 498 CNS
[62] = system: HOP-18 NSCLC
[63] = system: SNB-78 CNS
[64] = system: DMS 114 small cell lung
[65] = system: M19-MEL melanoma
[66] = system: KM20L2 colon
[67] = system: LXFL 529 NSCLC
[68] = system: RXF-631 renal
[69] = system: DLD-1 colon

Measured: TGI

Cc1ccccc1NC(=O)O/N=C(\Cl)C(C)C
33.4 µM: [49]
5.51 µM: [22]
31 µM: [39]
32.1 µM: [38]
4.03 µM: [29]
3.18 µM: [9]
36.8 µM: [45]
12.1 µM: [34]
> 22 µM: [54]
33.8 µM: [59]
33.7 µM: [10] | [33]
3.11 µM: [26]
6.25 µM: [23]
3.29 µM: [41]
8.19 µM: [18]
3.45 µM: [27]
4.79 µM: [30]
31.3 µM: [14]
23.2 µM: [50]
25.9 µM: [51]
32.6 µM: [32]
8.58 µM: [55]
36.4 µM: [57]
22.6 µM: [52]
58.5 µM: [16]
4.17 µM: [37]
45.1 µM: [35]
28.7 µM: [11]
32.8 µM: [2]
31.5 µM: [1] | [53]
> 21.7 µM: [3]
> 28 µM: [56]
> 100 µM: [15]
41.9 µM: [40]
4.08 µM: [48]
40.5 µM: [36]
3.2 µM: [4] | [6]
4.36 µM: [46]
34.7 µM: [31]
3.13 µM: [20]
39.9 µM: [42]
12.6 µM: [7]
5.73 µM: [43]
36.2 µM: [21]
22.1 µM: [24]
9.35 µM: [25]
32.7 µM: [5]
11.7 µM: [28]
11.3 µM: [19]
30.7 µM: [17]
4.94 µM: [58]
28.3 µM: [8]
32 µM: [13]
27.6 µM: [47]
30.1 µM: [44]
25.1 µM: [12]

Cc1ccccc1NC(=O)CSc1nnc(-c2ccc(N=Cc3ccc(Cl)cc3)cc2)o1
> 100 µM: [2] | [3] | [6] | [8] | [11] | [12] | [60] | [13] | [61] | [14] | [62] | [15] | [17] | [18] | [20] | [21] | [22] | [23] | [26] | [27] | [28] | [29] | [63] | [30] | [31] | [32] | [33] | [34] | [64] | [35] | [65] | [37] | [38] | [40] | [41] | [42] | [66] | [43] | [45] | [46] | [49] | [50] | [51] | [54] | [56] | [58] | [59] | [67]

N#CCCC(C=O)(CCC#N)CCC#N
> 100 µM: [1] | [2] | [3] | [4] | [5] | [6] | [7] | [8] | [9] | [10] | [11] | [12] | [13] | [14] | [15] | [16] | [17] | [18] | [19] | [20] | [21] | [22] | [23] | [24] | [25] | [26] | [27] | [28] | [30] | [31] | [32] | [33] | [34] | [35] | [36] | [37] | [38] | [39] | [40] | [41] | [42] | [43] | [44] | [45] | [46] | [47] | [48] | [50] | [51] | [52] | [53] | [54] | [55] | [57] | [58] | [59]

CCOc1ccc(NC(=O)/C(CC(=O)c2c[n+](=O)c3ccccc3n2[O-])=N\OCCCc2ccccc2)cc1
> 100 µM: [1] | [2] | [3] | [4] | [6] | [8] | [9] | [11] | [12] | [60] | [13] | [14] | [15] | [17] | [18] | [20] | [21] | [22] | [23] | [25] | [27] | [28] | [29] | [63] | [30] | [31] | [68] | [32] | [33] | [34] | [64] | [35] | [65] | [36] | [37] | [38] | [40] | [41] | [42] | [66] | [43] | [45] | [46] | [47] | [49] | [50] | [69] | [52] | [54] | [56] | [57] | [58] | [59] | [67]
99.6 µM: [48]

COc1cc(C)c2c(c1)CN1CN2Cc2cc(OC)cc(C)c21
79 µM: [8]
64.2 µM: [54]
54.2 µM: [25]
75.1 µM: [64]
> 100 µM: [2] | [3] | [4] | [6] | [9] | [60] | [13] | [15] | [17] | [20] | [21] | [22] | [26] | [27] | [28] | [29] | [63] | [30] | [31] | [32] | [33] | [34] | [35] | [65] | [36] | [37] | [41] | [42] | [43] | [45] | [46] | [47] | [48] | [49] | [50] | [69] | [52] | [56] | [58] | [59] | [67]
85.5 µM: [14]
14.4 µM: [51]
46.3 µM: [38]

O=C(c1ccccc1)C1N=NN(Cc2ccccc2[N+](=O)[O-])C1C(=O)c1ccccc1 (stereo not drawn)
> 100 µM: [1] | [2] | [3] | [4] | [8] | [9] | [11] | [12] | [60] | [13] | [14] | [62] | [15] | [17] | [18] | [20] | [21] | [22] | [23] | [25] | [26] | [27] | [28] | [29] | [63] | [30] | [31] | [32] | [33] | [34] | [64] | [35] | [65] | [36] | [37] | [38] | [40] | [41] | [42] | [66] | [43] | [45] | [46] | [47] | [48] | [49] | [50] | [69] | [51] | [54] | [56] | [58] | [59] | [67]

CCOc1ccc2nc(NC(=O)C(=O)C(C(=O)c3ccccc3F)C3OC(=O)c4ccccc43)sc2c1 (stereo not drawn)
31.8 µM: [30]
50.1 µM: [54]
40.2 µM: [40]
30.4 µM: [41]
55.6 µM: [15]
55.1 µM: [2]
33.8 µM: [51]
23.8 µM: [42]
77.6 µM: [50]
71 µM: [66]
> 100 µM: [11] | [20] | [22] | [49] | [69] | [56] | [57]
37.5 µM: [46]
46.2 µM: [61]
75.3 µM: [4]
82 µM: [35]
38.3 µM: [12]
52.4 µM: [52]
33.6 µM: [14]
39.5 µM: [31]
83.2 µM: [47]
27.8 µM: [9]
46.4 µM: [38]
45.3 µM: [58]
39.1 µM: [32]
27.7 µM: [8]
32.8 µM: [59]
74.4 µM: [63]
29.7 µM: [1]
27.5 µM: [17]
32.5 µM: [34]
90 µM: [29]
90.7 µM: [18]
51.4 µM: [60]
54.1 µM: [6]
27 µM: [65]
76.4 µM: [45]
70.1 µM: [68]
19 µM: [21]
46.5 µM: [23]
40.1 µM: [3]
38.2 µM: [37]
77.8 µM: [67]
